US10668135B2, “Methods of treating or preventing periodontitis and diseases associated with periodontitis” (The Trustees of the University of Pennsylvania, priority 2012, dated 2020)
“Also recorded” adds a separate entry of the source.

What was measured:
[1] = system: ligature-induced periodontitis; assay: Initial NHP study: ligature-induced periodontitis, maxillary posterior teeth, split-mouth, 6 weeks, two animals; assay type: in vivo, cynomolgus monkey; details: for clinical inflammation (inflammatory clinical parameters: probing pocket depth, gingival index, bleeding on probing, mobility index): Cp40 500 μg injected locally into maxillary interdental papillae, from day 3, vs inactive analog on contralateral side, 6 weeks, FIG. 4; for levels of proinflammatory cytokines in the gingival crevicular fluid (GCF): FIG. 5; for numbers of osteoclasts (TRAP-positive multinucleated cells) in bone biopsy specimens / osteoclastogenesis: FIG. 5G
Experimental: FIG. 4A, FIG. 4B, FIG. 4C, and FIG. 4D show results for probing pocket depth, gingival index, bleeding on probing, and mobility index, respectively, which are measurements typically used to detect clinical periodontal inflammation and bone lose. FIG. 4E represents a radiograph measurement of bone height. Starting 3 days after initiation of ligature-induced periodontitis, Cp40 (500 μg) was injected locally into the maxillary interdental papillae from the 1st premolar to the 2nd molar, in two animals, three times weekly. […] Shown are the effects of Cp40 on the indicated inflammatory clinical parameters and bone heights, determined using standardized X-ray images (taken at week 6) and NIKON imaging system software. Specifically, the distance between the cement-enamel junction (CEJ) and alveolar bone crest (ABC) was measured at six points (1st premolar, distal; 2nd premolar mesial & distal; 1st molar, mesial & distal; 2nd molar mesial) and the data in Panel E reflect the 6-site total. The higher CEJ-ABC distance values of the controls as compared to those of Cp40 treatments signify increased bone loss in the absence of drug treatment. In all animals, the gingival margin was at the cement-enamel junction, and thus, PPD readings equaled clinical attachment loss (CAL).
Specifically, the panels show the relative protein levels for TNF (FIG. 5A), IL-1b (FIG. 5B), IL-6 (FIG. 5C), IL-17A (FIG. 5D), receptor activator of nuclear factor kappa-B ligand (RANKL; FIG. 5E), and osteoprotegerin (OPG; FIG. 5F). At the same timepoints that clinical exams were performed (as per FIGS. 4A-4E), GCF was collected from the same monkeys (treatment details in FIGS. 4A-4E legend) using PERIOPAPER absorbent strips to assay the indicated cytokines. Total cytokine content in the eluted GCF samples was measured using MILLIPLEX MAP (multi-analyte panels) kits on a BIO-PLEX detection system. In FIG. 5G, TRAP-positive multinucleated cells (osteoclasts) were enumerated in nine serial sections for each bone biopsy specimen taken between the 2nd premolar and 1st molar of each animal.
The cynomolgus monkey model is therefore considerably more predictive of drug efficacy in human periodontitis as compared to other, widely used preclinical animal models such as rodents. Moreover, the cynomolgus model of ligature-induced periodontitis allows longitudinal examination of the disease in a way that cannot be performed in humans.
Thus, each animal served as its own control. An initial study with a 6-week duration was conducted using two animals.

[2] = system: ligature-induced periodontitis; assay: Second NHP study: ligature-induced periodontitis, mandibular posterior teeth, split-mouth, four monkeys; assay type: in vivo, cynomolgus monkey; details: n=4 monkeys
Experimental: FIG. 6A, FIG. 6B, FIG. 6C, and FIG. 6D show measurements for probing pocket depth, gingival index, bleeding on probing, and mobility index, respectively, between Cp40 treated and control animals. Starting 3 days after initiation of ligature-induced periodontitis, Cp40 (500 μg) or control were injected locally into the mandibular interdental papillae from the 1st premolar to the 2nd molar, three times weekly, in opposites sides of the mouth (split-mouth design). The effects of Cp40 were determined on the indicated inflammatory clinical parameters at the indicated timepoints. In all animals, the gingival margin was at the cement-enamel junction, and thus, PPD readings equaled clinical attachment loss (CAL). Data are means±SD (n=4 monkeys). *, P<0.05; **, P<0.01 vs. control.
Specifically, levels of TNF-α (FIG. 7A), IL-1β (FIG. 7B), IL-6 (FIG. 7C), interleukin 8 (IL-8; FIG. 7D), IL-17A (FIG. 7E), interleukin 18 (IL-18; FIG. 7F), granulocyte colony-stimulating factor (G-CSF; FIG. 7G), RANKL (FIG. 7H), and OPG (FIG. 7I) were measured. At the same timepoints that clinical exams were performed (as per FIGS. 6A-6D), GCF was collected from the same monkeys (treatment details in FIGS. 6A-6D legend) using PERIOPAPER absorbent strips to assay the indicated cytokines. Total cytokine content in the eluted GCF samples was measured using MILLIPLEX MAP (multi-analyte panels) kits on a BIO-PLEX detection system. Data are means±SD (n=4 monkeys). *, P<0.05; **, P<0.01 vs. control.
FIGS. 8A-8C are graphs showing inhibition of periodontal bone loss following treatment of NHP periodontitis with Cp40. Four monkeys were treated as described in the legend to FIGS. 6A-6D, and their mandibular bone heights (CEJ-ABC distance) were measured using standardized X-ray images (taken at baseline and at week 6) and NIKON imaging system software. Measurements were made at six points (1st premolar, distal; 2nd premolar mesial & distal; 1st molar, mesial & distal; 2nd molar mesial) and the data in FIG. 8A and FIG. 8B reflect, respectively, the 6-site total at baseline (FIG. 8A) and at week 6 (FIG. 8B). For each control or Cp40 treatment, bone loss was calculated as bone height at baseline minus bone height at 6 weeks (FIG. 8C). The difference between Cp40 and control was significant (P<0.05; paired t test).
In a second NHP study, ligature-induced periodontitis was induced by placing ligatures around the mandibular posterior teeth (i.e., in the lower jaw) of the same two animals plus in two additional animals (total of four monkeys). The results obtained (FIGS. 6, 7, and 8) confirmed the results of the original study. Moreover, the presence of four animals allowed the possibility for statistical analysis.

[3] = Cp40 500 μg local, three times weekly, vs inactive analog control

Row | Compound | clinical inflammation (inflammatory clinical parameters: probing pocket depth, gingival index, bleeding on probing, mobility index) ([1]; three times weekly) | levels of proinflammatory cytokines in the gingival crevicular fluid (GCF) [1, 3] | numbers of osteoclasts (TRAP-positive multinucleated cells) in bone biopsy specimens / osteoclastogenesis [1, 3] | bone loss (radiographic bone height, CEJ-ABC distance, 6-site total) ([1]; Cp40 500 μg local, three times weekly, X-ray at week 6, vs inactive analog control, FIG. 4E) | GCF levels of RANKL ([1]; Cp40 500 μg local, three times weekly, vs inactive analog control, FIG. 5E) | GCF levels of osteoprotegerin (OPG) ([1]; Cp40-treated sites vs control sites during the course of the study, FIG. 5F) | probing pocket depth (PPD), protective effect ([2]; Cp40 500 μg injected locally into mandibular interdental papillae, three times weekly, vs control, FIG. 6A) | inflammatory clinical parameters (overall) ([2]; Cp40 500 μg local mandibular, three times weekly, vs control, FIG. 6) | gingival index (GI), protective effect ([2]; Cp40 500 μg local mandibular, three times weekly, vs control, FIG. 6B) | GCF levels of proinflammatory cytokines (cytokine responses) ([2]; Cp40 500 μg local mandibular, three times weekly, vs control, FIG. 7) | periodontal bone loss (bone height at baseline minus bone height at 6 weeks, CEJ-ABC distance) ([2]; Cp40 500 μg local mandibular, three times weekly, vs control, P<0.05 paired t test, FIG. 8C) | GCF RANKL levels ([2]; Cp40 vs. control treatment, FIG. 7H) | GCF OPG levels ([2]; Cp40 vs. control treatment, FIG. 7I)
1 | CC[C@H](C)[C@H](N)C(=O)N[C@H]1CSSC[C@@H](C(=O)N[C@H](C(N)=O)[C@@H](C)O)NC(=O)[C@H](CCCN=C(N)N)NC(=O)[C@H](Cc2cnc[nH]2)NC(=O)[C@H](Cc2cnc[nH]2)NC(=O)CNC(=O)[C@H](Cc2c[nH]c3ccccc23)NC(=O)[C@H](CC(=O)O)NC(=O)[C@H](CCC(N)=O)NC(=O)[C@H](C(C)C)NC(=O)[C@H](C(C)C)NC1=O [Compstatin, Ile-Cys*-Val-Val-Gln-Asp-Trp-Gly-His-His-Arg-Cys*-Thr] | decreased clinical inflammation | reduced levels of proinflammatory cytokines | lower numbers of osteoclasts |  |  |  |  |  |  |  |  |  | 
2 | dTyr-Ile-Cys*-Val-Trp(1Me)-Gln-Asp-Trp-Sar-Ala-His-Arg-Cys*-mIle-NH2 (YICVWQDWGAHRCI; D-Tyr, Trp(1Me), Sar, mIle, disulfide cyclisation, C-terminal amide; compstatin analog (Cp40); MOD_RES (1)..(1) D-Tyrosine; DISULFID (3)..(13) Cysteines joined via disulfide bridge.; MOD_RES (5)..(5) 1-methyl-tryptophan; MOD_RES (9)..(9) …ON, MeGly; MOD_RES (14)..(14) …ON; MOD_RES (14)..(14) AMIDATION) | decreases inflammatory clinical parameters | inhibits proinflammatory cytokine production | decreased osteoclastogenesis | decreased bone loss | decreased GCF levels of RANKL | maintained at higher levels | reached statistical significance | significant inhibition of inflammatory clinical parameters | reached statistical significance | decreased GCF levels of proinflammatory cytokines; also recorded: reached statistical significance | significant inhibition of bone loss | decreased RANKL | increased OPG levels
